The record followed here is PMC9820345, “Metal Complexes of a 5-Nitro-8-Hydroxyquinoline-Proline Hybrid with Enhanced Water Solubility Targeting Multidrug Resistant Cancer Cells” (International Journal of Molecular Sciences, 2022).

Like-named read-outs stand apart in the source and are kept apart here.

The series can be described thus: Proton dissociation constants (pKa) of the ligand by pH-potentiometric, UV-vis and 1H NMR titrations. It counts as physicochemical. The conditions noted are these: for pKa: 25.0 °C. The method, then: Characterization of the protonation/deprotonation equilibrium processes of a bioactive molecule is important to reveal its actual chemical form and charge at a given pH. The proton dissociation constant (Ka) is a key physico-chemical parameter since it has an impact on many biopharmaceutical characteristics such as lipophilicity, water solubility, and albumin binding, which in turn directly influences pharmacokinetics. The pKa values of the protonated HQNO2-L-Pro were determined by pH-potentiometric, UV-vis (Figure 1a), and ^1H NMR spectroscopic titrations (Table 1).
The pH-potentiometric measurements were carried out at 25.0 ± 0.1 °C in water in the pH range between 2.0 and 11.5 at a constant ionic strength of 0.2 M KNO3. The titrations were performed in a carbonate-free KOH solution (0.20 or 0.10 M). The exact concentrations of HNO3, HCl, and KOH solutions were always determined by pH-potentiometric titrations. An Orion 710A pH-meter equipped with a Metrohm combined electrode (type 6.0234.100) and a Metrohm 665 Dosimat burette were used for the measurements. […] The average water ionization constant (pKw) was determined as 13.76 ± 0.01, which is in good agreement with the literature data. In the case of the titrations in 30% (v/v) DMSO/H2O, the calibration of the pH-potentiometric system was conducted as in our former works. Samples were degassed by bubbling purified argon through them for about 10 min prior to the measurements, and the inert gas was also passed over the solutions during the titrations. Stoichiometry of the species and their equilibrium constants were obtained similarly to that performed in our previous works, with the use of computer program Hyperquad2013 [50].
An Agilent Cary 8454 diode array spectrophotometer (Santa Clara, CA, USA) was used to obtain UV-vis spectra in the wavelength range 200–1000 nm, while spectra were recorded for the Fe(II)-containing samples using an Avantes (Avantes B.V., Apeldoorn, The Nederlands) AvaSpec-ULS2048CL-EVO spectrometer with an AvaLight-DHc light source and FDP-7UVIR200-2-VAR transmission dip probe. The titrations for the Fe(II)-containing samples were performed in a laboratory glove box (GP(Campus), Jacomex) (O2 content ≤ 1 ppm). The path length (ℓ) was 1 cm in most cases (the actual ℓ is always indicated in the legends of the figures). The concentrations of the ligands and complexes were between 40 and 200 µM, and 0.2 M KNO3 for the organometallic complexes or 0.1 M KCl for the Fe(II/III), Cu(II), and Zn(II) complexes were used to adjust the constant ionic strength. For HSA containing samples, complex concentrations were 50 µM, and 0.5, and 2 equiv. biomolecules were added for kinetic studies, respectively. For HSA model containing samples, complex concentrations were 50 µM, and the model concentrations were 0–150 µM and 0–500 µM, respectively, and the pH was 7.4 (PBS’). Spectra were always background and baseline corrected. The computer program HypSpec was used to obtain stability constants. Hydrolysis constants of the Fe(III), Fe(II), RuCym, and RhCp* species were included in the speciation models (see Table S4 with the data taken from References).
The Bruker Avance III HD Ascend 500 Plus instrument (Billerica, MA, USA) was used for NMR studies. ^1H NMR spectroscopic measurements were carried out with a WATERGATE water suppression pulse scheme in the presence of 10% (v/v) D2O/H2O in most cases. DSS internal standard was added to samples to obtain reference peaks. ^1H NMR titrations were carried out for the ligand alone, and for the organometallic complexes in the presence of 0.2 M KNO3. With the AHA and FHA model peptides, the measurements were performed at pH 7.4 (PBS’) at 0.5 or 1 mM metal complex concentrations, and 1:1, 1:2 or 2:1 peptide-to-metal complex ratios were applied. NMR titrations were also performed for the Zn(II)-ligand systems using 0.1 M KCl ionic strength. […]

What is called pKa is the pH at which an ionisable group is half protonated. On to `O=C(O)[C@@H]1CCCN1Cc1cc([N+](=O)[O-])c2cccnc2c1O` [HQNO2-L-Pro, (2S)-1-((8-hydroxy-5-nitroquinolin-7-yl)methyl)pyrrolidin-1-ium-2-carboxylate], for which the pKa by setting is: (0.10 M KCl, UV-vis, I = 0.10 M KCl, cligand 40 μM, read-out: pKa (NProH+)) 10.75 ± 0.03; (0.10 M KCl, UV-vis, I = 0.10 M KCl, cligand 40 μM, read-out: pKa (OH)) 5.43 ± 0.03; (0.20 M KNO3, 1H NMR, I = 0.20 M KNO3, cligand 1000 μM, read-out: pKa (NProH+)) above 10.5; (0.20 M KNO3, 1H NMR, I = 0.20 M KNO3, cligand 1000 μM, read-out: pKa (OH)) 5.56 ± 0.03; (0.20 M KNO3, UV-vis, I = 0.20 M KNO3, cligand 40 μM, read-out: pKa (NProH+)) 10.78 ± 0.03; (0.20 M KNO3, UV-vis, I = 0.20 M KNO3, cligand 40 μM, read-out: pKa (OH)) 5.5 ± 0.03. Moreover, the pKa was 10.68 ± 0.07 (water, 0.20 M KNO3, pH-potentiometry, I = 0.20 M KNO3, cligand 1700 μM, read-out: pKa (NProH+)) and 5.57 ± 0.09 (water, 0.20 M KNO3, pH-potentiometry, I = 0.20 M KNO3, cligand 1700 μM, read-out: pKa (OH)). For the same compound, the “fraction of H2L” value (pH 5.5) is 47%. Moreover, the “fraction of HL−” value (pH 5.5) was 53%.
